Laboratory results from patent US11911436B2, “Amphiphilic peptide chaperones and methods of use” (priority 2021, dated 2024).
Marks after values point to notes of the source that are not given here.

Assays:
[1] = tested on: CL2006 C. elegans; test: CL2006 lifespan at 20° C. (paralysis and death model); type: in vivo; details: CL2006 worms, 50 μg peptide
Experimental: CL2006 C. elegans were used as a paralysis and death model. Worms are maintained at 15° C., with adult onset paralysis induced at 20° C.
50 μg CPAMC and CPPRAMC peptide or controls were added to CL2006 worms, and the fraction left alive over time at the restrictive temperature of 20° C. was quantified (FIG. 12). […] (FIG. 12).

[2] = tested on: human primary lens epithelial (HLE-1°) cells; test: Melittin cytotoxicity, cell viability imaging; type: cell-based; details: 1 μM melittin, 45 min
Experimental: The ability of CPAMC peptide to block the cytotoxic action of melittin on human primary lens epithelial (HLE-1°) cells was investigated. Cell viability imaging was performed with dead cells identified by fluorescent staining. HLE-1° cells cultured on a 96-well plate were treated with 1 μM melittin and/or different concentrations of CPAMC peptide for 45 min. At the end of the incubation, cell viability imaging was done using the EarlyTox cell integrity kit (Molecular Devices, Sunnyvale, Calif.) (FIG. 4A). The percentage of dead cells in each sample was calculated from the live/dead cell imaging data using the Softmax Pro software (FIG. 4B).

[3] = tested on: CL4176 C. elegans; test: CL4176 Aβ-induced paralysis and survival assay; type: in vivo; details: CL4176 worms
Experimental: CL4176 C. elegans is a temperature sensitive strain. Worms are maintained at 15° C. and shifted to increased temperature to cause Aβ-induced paralysis in adults. This has been used as a C. elegans model of Alzheimer's disease.
A scheme of a paralysis assay with CL4176 worms is shown (FIG. 13A). Peptide treatment began on CL4176 embryos and continued throughout the experiment. After 2 days at 15° C., the temperature was increased to the restrictive temperature of 25° C. Worms were scored for survival and paralysis.
Example images of paralyzed and non-paralyzed worms are shown (FIG. 13C).

[4] = tested on: C. elegans wild-type (N2 strain); test: Paraquat (PQ)-induced oxidative stress survival; type: in vivo; details: five-day old N2 worms, 50 μg peptide 24 hours, 50 mM PQ
Experimental: Five-day old N2 worms were pretreated with 50 μg peptide for 24 hours and subjected to 50 mM PQ. The survival of the worms was monitored every hour under a microscope until the end of survival. […] The median survival value (50% survival) in CPPRAMC, CPAMC, and CP-SC (control) peptides corresponds to 9.6 h, 8.9 h and 5.9 h, respectively, as compared to vehicle control (5.5 h) (FIG. 14).

[5] = tested on: wild-type C. elegans (N2); test: C. elegans N2 lifespan assay at 20° C. with peptide feeding; type: in vivo; details: N2 worms
Experimental: A schematic of an assay of C. elegans N2 lifespan at 20° C. is shown (FIG. 10A). This involved peptide treatment (50 μg) with E. coli OP50 as a food source. Plates were changed every second day with 50 μg fresh peptide and OP50. Scoring of survival was done every day to the last day of survival. 50 mM FUdR was added in experimental plates between D1 and D5 to prevent progeny production.

[6] = tested on: ARPE-19 cells; test: Sodium iodate-induced oxidative stress, DCFH-DA staining; type: cell-based; details: 7.5 mM sodium iodate, 24 hrs
Experimental: The ability of CPPRAMC and CPAMC to suppress sodium iodate-induced oxidative stress in ARPE-19 cells was also assessed. ARPE-19 cells seeded on a 96-well plate were treated with 7.5 mM of sodium iodate and peptides in 100 μl of serum-free DMEM/F12 media for 24 hrs. The cells were then stained with 10 μM DCFH-DA for 30 min at 37° C. in the dark and the cells were observed under the EVOS FL Auto2 imaging system (Thermo Fisher Scientific, Waltham, Mass., USA) with 10× magnification.

[7] = tested on: HEK293 IL-6 reporter cells; test: IL-6 signaling, STAT3-stimulated SEAP reporter; type: cell-based; details: human recombinant IL-6 and peptides, 1 hr
Experimental: HEK293 IL-6 reporter cells were treated with human recombinant IL-6 and the peptides for 1 hr. The STAT3-stimulated SEAP activity in the culture supernatant was measured using QUANTI-Blue solution (InvivoGen) (FIG. 19B).

[8] = tested on: human red blood cells; test: Melittin-induced hemolysis of human RBC; type: cell-based; details: 2% human RBC, room temperature 30 min, OD 540 nm
Experimental: Hemolysis of human red blood cells with melittin was measured with varying concentrations of CPAMC (FIG. 3). To 0.3 mL of 2% human RBC (red blood cell) suspension was added 2 μM melittin and/or peptides taken in 0.7 mL of PBS. The tubes were incubated at room temperature for 30 min, centrifuged, and the OD of the supernatant was measured at 540 nm. PBS and PBS containing 0.1% TritonX-100 served as negative and positive control, respectively.
The protective effect of Myr-CPAMC peptide of human red blood cells (RBC) from melittin-induced hemolysis was also examined. To 0.3 mL of 2% human RBC suspension was added to melittin and/or peptide taken in 0.7 mL of PBS. The tubes were incubated at room temperature for 30 min, centrifuged (FIG. 5A) and the OD of the supernatant was measured at 540 nm. PBS and PBS containing 0.1% TritonX-100 served as negative and positive control, respectively.

[9] = tested on: C. elegans (N2) worms; test: Juglone (JG)-induced oxidative stress survival; type: in vivo; details: N2 worms at day 5, 50 μg peptide 24 h, 50 μM JG
Experimental: N2 worms at day 5 pretreated for 24 h with 50 μg CPAMC or CP-SC (control) and subjected to 50 μM JG. Survival was checked every hour under a microscope until the end of survival. The median survival value in CPAMC and CP-SC (control) peptides corresponds to 7.3 h and 5.9 h, respectively, compared to vehicle control (4.9 h) (FIG. 15).

[10] = tested on: C. elegans (N2 strain); test: Thermotolerance assay, continuous heat stress at 35° C.; type: in vivo; details: N2 worms
Experimental: The lifespan of wild type C. elegans with and without peptide at a restrictive temperature was measured.
A schematic representation of the thermotolerance assay used is shown (FIG. 11A). 24 hours of 50 μg peptide treatment at 20° C. of a synchronized population of wild type C. elegans was followed by a continuous heat stress at 35° C. Worms were scored every two hours for 24 hours for survival.

## CH3-LFVIFLVHFSPGRDEDKDEK-NH2 (Me-LFVIFLVHFSPGRDEDKDEK-NH2) [CPAMC, Cell-penetrable, amphiphilic mini chaperone synthesized with L-amino acids]
[1]
  Median survival ± SE (days at 20° C.): 7.7 ± 0.28 days
[1]; vs control
  % increase in survival: 11.6%
[2]
  percentage of dead cells with melittin and peptide: blocks the cytotoxic action of melittin
[3]; 25° C.
  delay of Aβ-induced paralysis: delay of CL4176 worm paralysis compared to controls
[3]; 25° C., vs control
  % increase in median survival: 12%
[3]; 2 days at 15° C., then 25° C.
  Median survival Hours ± SE: 49.6 ± 0.5 h
[4]
  median survival value (50% survival): 8.9 h
[5]; 50 μg peptide with E. coli OP50
  Median Lifespan (Days ± SE): 18.23 ± 0.25 days
[5]; 50 μg peptide, vs control
  Increase in median survival (%): 36* %
[6]
  oxidative stress by DCFH-DA staining: reduce or block the oxidative stress induced by sodium iodate
[7]
  IL-6 signaling (STAT3-stimulated SEAP activity): IL-6 signaling is also suppressed
[8]
  hemolysis by melittin in presence of peptide: Hemolysis decreased as concentration of CPAMC increased
[9]
  median survival value: 7.3 h
[10]; 35° C., 50 μg peptide, vs control
  % increase in survival: 31* %
[10]; 24 hours 50 μg peptide at 20° C., then 35° C.
  Median survival ± SE (hours at 35° C.): 11.0 ± 0.4 h
